These results are taken from ChEMBL document CHEMBL4613209, “Quinolone hybrids and their anti-cancer activities: An overview” (Eur J Med Chem, 2019).

The term IC50 denotes the concentration needed to halve the response being measured.

≈ marks a conversion by molar mass, not a printed value.

The first test relates to Lewis lung carcinoma cell line. Put plainly: Anticancer activity against mouse LLC cells. It is filed as functional, cell-based.
Molecule `COc1ccc(NC2CCN(C3C(F)=Cc4c5n(cc(C(=O)O)c4=O)-c4ccccc4OC53)C2)cc1` (configuration not stated) gave an IC50 of 30 to 490 nM.
The molecule `NC1CCN(C2C(F)=Cc3c4n(cc(C(=O)O)c3=O)-c3ccccc3OC42)C1` (configuration not stated) displayed an IC50 of 30 to 490 nM.
Consider `O=C(O)c1cn2c3c(c1=O)C=C(F)C(N1CCC(Nc4ccccc4)C1)C3Oc1ccccc1-2` (configuration not stated), for which the IC50 lay in the range of 30 to 490 nM.
`Cc1ccc(NC2CCN(C3C(F)=Cc4c5n(cc(C(=O)O)c4=O)-c4ccccc4OC53)C2)cc1` (configuration not stated) returned an IC50 of 30 to 490 nM.

The subject of the next test is MCF7. Put plainly: Anticancer activity against human MCF7 cells. It is filed as functional, cell-based.
Molecule `COc1ccc(NC2CCN(C3C(F)=Cc4c5n(cc(C(=O)O)c4=O)-c4ccccc4OC53)C2)cc1` (configuration not stated) showed an IC50 of 30 to 490 nM.
For the molecule `NC1CCN(C2C(F)=Cc3c4n(cc(C(=O)O)c3=O)-c3ccccc3OC42)C1` (configuration not stated), the IC50 fell in the range of 30 to 490 nM.
As for `O=C(O)c1cn2c3c(c1=O)C=C(F)C(N1CCC(Nc4ccccc4)C1)C3Oc1ccccc1-2` (configuration not stated), the IC50 is 30 to 490 nM.
With `Cc1ccc(NC2CCN(C3C(F)=Cc4c5n(cc(C(=O)O)c4=O)-c4ccccc4OC53)C2)cc1` (configuration not stated), the IC50 lay within 30 to 490 nM.

The subject of the next test is HCT-8. Put plainly: Anticancer activity against human HCT8 cells. Format: functional, cell-based.
`COc1ccc(NC2CCN(C3C(F)=Cc4c5n(cc(C(=O)O)c4=O)-c4ccccc4OC53)C2)cc1` (configuration not stated): the IC50 was in the range of 30 to 490 nM.
`NC1CCN(C2C(F)=Cc3c4n(cc(C(=O)O)c3=O)-c3ccccc3OC42)C1` (configuration not stated) registered a 50% inhibitory concentration (IC50) of 30 to 490 nM.
The same measure, in the same setting: the same measure for `O=C(O)c1cn2c3c(c1=O)C=C(F)C(N1CCC(Nc4ccccc4)C1)C3Oc1ccccc1-2` (configuration not stated): 30 to 490 nM; for `Cc1ccc(NC2CCN(C3C(F)=Cc4c5n(cc(C(=O)O)c4=O)-c4ccccc4OC53)C2)cc1` (configuration not stated): 30 to 490 nM.

The next test deals with B16-F10. Put plainly: Cytotoxicity against mouse B16F10 cells assessed as reduction in cell viability. Format: functional, cell-based.
For `COc1ccc(NC2CCN(C3C(F)=Cc4c5n(cc(C(=O)O)c4=O)-c4ccccc4OC53)C2)cc1` (configuration not stated), the IC50 fell in the range of 0.011 to 0.59 µg/mL (≈ 0.0225 to 1.21 µM).
Regarding `NC1CCN(C2C(F)=Cc3c4n(cc(C(=O)O)c3=O)-c3ccccc3OC42)C1` (configuration not stated), the IC50 lay within 0.011 to 0.59 µg/mL (≈ 0.0287 to 1.54 µM).
With `O=C(O)c1cn2c3c(c1=O)C=C(F)C(N1CCC(Nc4ccccc4)C1)C3Oc1ccccc1-2` (configuration not stated), the IC50 lay within 0.011 to 0.59 µg/mL (≈ 0.0239 to 1.28 µM).
With `Cc1ccc(NC2CCN(C3C(F)=Cc4c5n(cc(C(=O)O)c4=O)-c4ccccc4OC53)C2)cc1` (configuration not stated), the IC50 lay in the range of 0.011 to 0.59 µg/mL (≈ 0.0232 to 1.25 µM).

The subject of the next test is HT-29. Put plainly: Anticancer activity against human HT-29 cells. It is filed as functional, cell-based.
In the case of `COc1ccc(NC2CCN(C3C(F)=Cc4c5n(cc(C(=O)O)c4=O)-c4ccccc4OC53)C2)cc1` (configuration not stated), the IC50 lay in the range of 30 to 490 nM.
The molecule `NC1CCN(C2C(F)=Cc3c4n(cc(C(=O)O)c3=O)-c3ccccc3OC42)C1` (configuration not stated) came in with an IC50 of 30 to 490 nM.
With `O=C(O)c1cn2c3c(c1=O)C=C(F)C(N1CCC(Nc4ccccc4)C1)C3Oc1ccccc1-2` (configuration not stated), the IC50 lay in the range of 30 to 490 nM.
As for `Cc1ccc(NC2CCN(C3C(F)=Cc4c5n(cc(C(=O)O)c4=O)-c4ccccc4OC53)C2)cc1` (configuration not stated), the IC50 fell in the range of 30 to 490 nM.

Another test deals with A549. Put plainly: Anticancer activity against human A549 cells. It is filed as functional, cell-based.
Regarding `COc1ccc(NC2CCN(C3C(F)=Cc4c5n(cc(C(=O)O)c4=O)-c4ccccc4OC53)C2)cc1` (configuration not stated), the IC50 was in the range of 30 to 490 nM.
Molecule `NC1CCN(C2C(F)=Cc3c4n(cc(C(=O)O)c3=O)-c3ccccc3OC42)C1` (configuration not stated) registered an IC50 of 30 to 490 nM.
Consider `O=C(O)c1cn2c3c(c1=O)C=C(F)C(N1CCC(Nc4ccccc4)C1)C3Oc1ccccc1-2` (configuration not stated), for which the IC50 was in the range of 30 to 490 nM.
Take `Cc1ccc(NC2CCN(C3C(F)=Cc4c5n(cc(C(=O)O)c4=O)-c4ccccc4OC53)C2)cc1` (configuration not stated): the IC50 is 30 to 490 nM.

The test system of another test is B16-F10. Put plainly: Anticancer activity against mouse B16F10 cells. Format: functional, cell-based.
Turning to `COc1ccc(NC2CCN(C3C(F)=Cc4c5n(cc(C(=O)O)c4=O)-c4ccccc4OC53)C2)cc1` (configuration not stated), the IC50 was 30 to 490 nM.
Molecule `NC1CCN(C2C(F)=Cc3c4n(cc(C(=O)O)c3=O)-c3ccccc3OC42)C1` (configuration not stated) yielded an IC50 of 30 to 490 nM.
`O=C(O)c1cn2c3c(c1=O)C=C(F)C(N1CCC(Nc4ccccc4)C1)C3Oc1ccccc1-2` (configuration not stated) came in with an IC50 of 30 to 490 nM.
Consider `Cc1ccc(NC2CCN(C3C(F)=Cc4c5n(cc(C(=O)O)c4=O)-c4ccccc4OC53)C2)cc1` (configuration not stated), for which the IC50 fell in the range of 30 to 490 nM.

In another test the test system is P388. Put plainly: Anticancer activity against mouse P388 cells. Format: functional, cell-based.
The molecule `COc1ccc(NC2CCN(C3C(F)=Cc4c5n(cc(C(=O)O)c4=O)-c4ccccc4OC53)C2)cc1` (configuration not stated) had an IC50 of 30 to 490 nM.
In the case of `NC1CCN(C2C(F)=Cc3c4n(cc(C(=O)O)c3=O)-c3ccccc3OC42)C1` (configuration not stated), the IC50 fell in the range of 30 to 490 nM.
Turning to `O=C(O)c1cn2c3c(c1=O)C=C(F)C(N1CCC(Nc4ccccc4)C1)C3Oc1ccccc1-2` (configuration not stated), the IC50 fell in the range of 30 to 490 nM.
Molecule `Cc1ccc(NC2CCN(C3C(F)=Cc4c5n(cc(C(=O)O)c4=O)-c4ccccc4OC53)C2)cc1` (configuration not stated) showed an IC50 of 30 to 490 nM.

The subject of a further test is P388. Put plainly: Cytotoxicity against mouse P388 cells assessed as reduction in cell viability. Format: functional, cell-based.
As to `COc1ccc(NC2CCN(C3C(F)=Cc4c5n(cc(C(=O)O)c4=O)-c4ccccc4OC53)C2)cc1` (configuration not stated), the IC50 was 0.011 to 0.59 µg/mL (≈ 0.0225 to 1.21 µM).
Turning to `NC1CCN(C2C(F)=Cc3c4n(cc(C(=O)O)c3=O)-c3ccccc3OC42)C1` (configuration not stated), the IC50 was 0.011 to 0.59 µg/mL (≈ 0.0287 to 1.54 µM).
Still for that read-out and setting: the same measure for `O=C(O)c1cn2c3c(c1=O)C=C(F)C(N1CCC(Nc4ccccc4)C1)C3Oc1ccccc1-2` (configuration not stated): 0.011 to 0.59 µg/mL (≈ 0.0239 to 1.28 µM); for `Cc1ccc(NC2CCN(C3C(F)=Cc4c5n(cc(C(=O)O)c4=O)-c4ccccc4OC53)C2)cc1` (configuration not stated): 0.011 to 0.59 µg/mL (≈ 0.0232 to 1.25 µM).

A further test has as its system P388. Put plainly: Cytotoxicity against doxorubicin resistant mouse P388 cells assessed as reduction in cell viability. It is filed as functional, cell-based.
As to `COc1ccc(NC2CCN(C3C(F)=Cc4c5n(cc(C(=O)O)c4=O)-c4ccccc4OC53)C2)cc1` (configuration not stated), the IC50 was in the range of 0.011 to 0.59 µg/mL (≈ 0.0225 to 1.21 µM).
Turning to `NC1CCN(C2C(F)=Cc3c4n(cc(C(=O)O)c3=O)-c3ccccc3OC42)C1` (configuration not stated), the IC50 was 0.011 to 0.59 µg/mL (≈ 0.0287 to 1.54 µM).
As to `O=C(O)c1cn2c3c(c1=O)C=C(F)C(N1CCC(Nc4ccccc4)C1)C3Oc1ccccc1-2` (configuration not stated), the IC50 fell in the range of 0.011 to 0.59 µg/mL (≈ 0.0239 to 1.28 µM).
Consider `Cc1ccc(NC2CCN(C3C(F)=Cc4c5n(cc(C(=O)O)c4=O)-c4ccccc4OC53)C2)cc1` (configuration not stated), for which the IC50 fell in the range of 0.011 to 0.59 µg/mL (≈ 0.0232 to 1.25 µM).

A further test deals with HT-29. Put plainly: Cytotoxicity against human HT-29 cells assessed as reduction in cell viability. Format: functional, cell-based.
On to `COc1ccc(NC2CCN(C3C(F)=Cc4c5n(cc(C(=O)O)c4=O)-c4ccccc4OC53)C2)cc1` (configuration not stated), for which the IC50 was 0.011 to 0.59 µg/mL (≈ 0.0225 to 1.21 µM).
Turning to `NC1CCN(C2C(F)=Cc3c4n(cc(C(=O)O)c3=O)-c3ccccc3OC42)C1` (configuration not stated), the IC50 fell in the range of 0.011 to 0.59 µg/mL (≈ 0.0287 to 1.54 µM).
As for `O=C(O)c1cn2c3c(c1=O)C=C(F)C(N1CCC(Nc4ccccc4)C1)C3Oc1ccccc1-2` (configuration not stated), the IC50 was in the range of 0.011 to 0.59 µg/mL (≈ 0.0239 to 1.28 µM).
Still for that read-out and setting: the same measure for `Cc1ccc(NC2CCN(C3C(F)=Cc4c5n(cc(C(=O)O)c4=O)-c4ccccc4OC53)C2)cc1` (configuration not stated): 0.011 to 0.59 µg/mL (≈ 0.0232 to 1.25 µM).

The test system of another test is P388. Put plainly: Anticancer activity against doxorubicin resistant mouse P388 cells. It is filed as functional, cell-based.
The molecule `COc1ccc(NC2CCN(C3C(F)=Cc4c5n(cc(C(=O)O)c4=O)-c4ccccc4OC53)C2)cc1` (configuration not stated) came in with a concentration for half-maximal inhibition (IC50) of 30 to 490 nM.
`NC1CCN(C2C(F)=Cc3c4n(cc(C(=O)O)c3=O)-c3ccccc3OC42)C1` (configuration not stated) yielded an IC50 of 30 to 490 nM.
The same measure, in the same setting: for `O=C(O)c1cn2c3c(c1=O)C=C(F)C(N1CCC(Nc4ccccc4)C1)C3Oc1ccccc1-2` (configuration not stated) the value was 30 to 490 nM.
The molecule `Cc1ccc(NC2CCN(C3C(F)=Cc4c5n(cc(C(=O)O)c4=O)-c4ccccc4OC53)C2)cc1` (configuration not stated) displayed an IC50 of 30 to 490 nM.

The subject of another test is A549. Put plainly: Cytotoxicity against human A549 cells assessed as reduction in cell viability. It is filed as functional, cell-based.
`COc1ccc(NC2CCN(C3C(F)=Cc4c5n(cc(C(=O)O)c4=O)-c4ccccc4OC53)C2)cc1` (configuration not stated): the IC50 lay within 0.011 to 0.59 µg/mL (≈ 0.0225 to 1.21 µM).
In the case of `NC1CCN(C2C(F)=Cc3c4n(cc(C(=O)O)c3=O)-c3ccccc3OC42)C1` (configuration not stated), the IC50 lay within 0.011 to 0.59 µg/mL (≈ 0.0287 to 1.54 µM).
For the molecule `O=C(O)c1cn2c3c(c1=O)C=C(F)C(N1CCC(Nc4ccccc4)C1)C3Oc1ccccc1-2` (configuration not stated), the IC50 fell in the range of 0.011 to 0.59 µg/mL (≈ 0.0239 to 1.28 µM).
In the case of `Cc1ccc(NC2CCN(C3C(F)=Cc4c5n(cc(C(=O)O)c4=O)-c4ccccc4OC53)C2)cc1` (configuration not stated), the IC50 lay within 0.011 to 0.59 µg/mL (≈ 0.0232 to 1.25 µM).
